Measured values reported in the supplement of paper PMC11451515.

Tested on: SEM cells
Assay: cell viability relative to DMSO control; higher = less cytotoxic
Conditions: 48 h
Procedure, shortened: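 Library compounds in DMSO were pin-dosed into 1536-well plates (5 μl) holding NOMO1 or SEM (500 cells/well) or P12-Ichikawa (1000 cells/well) leukemia cells, across an 11-point threefold series of 47 μM to 0.79 nM. Each cell line had been adapted for at least four passages in each medium. CellTiter-Glo One luminescence was read after 48 h at 37°C. Viability is the per-plate percentage relative to DMSO wells, with cell-free wells as background.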

[1] = HPLM + 10% dialyzed FBS, 0.000781 µM
[2] = HPLM + 10% dialyzed FBS, 0.00234 µM
[3] = HPLM + 10% dialyzed FBS, 0.00702 µM
[4] = HPLM + 10% dialyzed FBS, 0.0211 µM
[5] = HPLM + 10% dialyzed FBS, 0.0632 µM
[6] = HPLM + 10% dialyzed FBS, 0.19 µM
[7] = HPLM + 10% dialyzed FBS, 0.569 µM
[8] = HPLM + 10% dialyzed FBS, 1.71 µM
[9] = HPLM + 10% dialyzed FBS, 5.12 µM
[10] = HPLM + 10% dialyzed FBS, 15.4 µM
[11] = HPLM + 10% dialyzed FBS, 46.1 µM
[12] = RPMI 5 mM glucose + 10% FBS, 0.000781 µM
[13] = RPMI 5 mM glucose + 10% FBS, 0.00234 µM
[14] = RPMI 5 mM glucose + 10% FBS, 0.00702 µM
[15] = RPMI 5 mM glucose + 10% FBS, 0.0211 µM
[16] = RPMI 5 mM glucose + 10% FBS, 0.0632 µM
[17] = RPMI 5 mM glucose + 10% FBS, 0.19 µM
[18] = RPMI 5 mM glucose + 10% FBS, 0.569 µM
[19] = RPMI 5 mM glucose + 10% FBS, 1.71 µM
[20] = RPMI 5 mM glucose + 10% FBS, 5.12 µM
[21] = RPMI 5 mM glucose + 10% FBS, 15.4 µM
[22] = RPMI 5 mM glucose + 10% FBS, 46.1 µM
[23] = RPMI 5 mM glucose + 10% dialyzed FBS, 0.000781 µM
[24] = RPMI 5 mM glucose + 10% dialyzed FBS, 0.00234 µM
[25] = RPMI 5 mM glucose + 10% dialyzed FBS, 0.00702 µM
[26] = RPMI 5 mM glucose + 10% dialyzed FBS, 0.0211 µM
[27] = RPMI 5 mM glucose + 10% dialyzed FBS, 0.0632 µM
[28] = RPMI 5 mM glucose + 10% dialyzed FBS, 0.19 µM
[29] = RPMI 5 mM glucose + 10% dialyzed FBS, 0.569 µM
[30] = RPMI 5 mM glucose + 10% dialyzed FBS, 1.71 µM
[31] = RPMI 5 mM glucose + 10% dialyzed FBS, 5.12 µM
[32] = RPMI 5 mM glucose + 10% dialyzed FBS, 15.4 µM
[33] = RPMI 5 mM glucose + 10% dialyzed FBS, 46.1 µM

Structure (SMILES): Cc1cnc(Nc2ccc(N3CCN(C)CC3)cc2)nc1Nc1cccc([S+](=O)([O-])NC(C)(C)C)c1
- cell viability [1]: 110%
- cell viability [2]: 110%
- cell viability [3]: 118%
- cell viability [4]: 114%
- cell viability [5]: 116%
- cell viability [6]: 94.9%
- cell viability [7]: 85.1%
- cell viability [8]: 27.2%
- cell viability [9]: 7.39%
- cell viability [10]: 2.61%
- cell viability [11]: 3.12%
- cell viability [12]: 116%
- cell viability [13]: 113%
- cell viability [14]: 107%
- cell viability [15]: 114%
- cell viability [16]: 104%
- cell viability [17]: 90.2%
- cell viability [18]: 77.8%
- cell viability [19]: 22.8%
- cell viability [20]: 5.43%
- cell viability [21]: 2.59%
- cell viability [22]: 3.4%
- cell viability [23]: 106%
- cell viability [24]: 105%
- cell viability [25]: 119%
- cell viability [26]: 110%
- cell viability [27]: 101%
- cell viability [28]: 88.4%
- cell viability [29]: 97.9%
- cell viability [30]: 26.2%
- cell viability [31]: 7.58%
- cell viability [32]: 2.94%
- cell viability [33]: 3.71%

Structure (SMILES): COC(=O)[C@H](c1ccccc1Cl)N1CCc2sccc2C1
- cell viability [1]: 75.5%
- cell viability [2]: 89.5%
- cell viability [3]: 105%
- cell viability [4]: 110%
- cell viability [5]: 96.3%
- cell viability [6]: 111%
- cell viability [7]: 106%
- cell viability [8]: 120%
- cell viability [9]: 109%
- cell viability [10]: 121%
- cell viability [11]: 111%
- cell viability [12]: 87.5%
- cell viability [13]: 80.4%
- cell viability [14]: 97.2%
- cell viability [15]: 98.9%
- cell viability [16]: 93.3%
- cell viability [17]: 102%
- cell viability [18]: 106%
- cell viability [19]: 103%
- cell viability [20]: 107%
- cell viability [21]: 107%
- cell viability [22]: 108%
- cell viability [23]: 84.1%
- cell viability [24]: 84.1%
- cell viability [25]: 86.5%
- cell viability [26]: 108%
- cell viability [27]: 110%
- cell viability [28]: 91.6%
- cell viability [29]: 95.3%
- cell viability [30]: 135%
- cell viability [31]: 116%
- cell viability [32]: 122%
- cell viability [33]: 99.5%

Structure (SMILES): C1COC(NC(C2CC2)C2CC2)=N1
- cell viability [1]: 79.5%
- cell viability [2]: 78%
- cell viability [3]: 66.1%
- cell viability [4]: 95.3%
- cell viability [5]: 72.9%
- cell viability [6]: 87.9%
- cell viability [7]: 81.2%
- cell viability [8]: 21.6%
- cell viability [9]: 88.7%
- cell viability [10]: 99%
- cell viability [11]: 60.1%
- cell viability [12]: 72.5%
- cell viability [13]: 92%
- cell viability [14]: 72.4%
- cell viability [15]: 75.8%
- cell viability [16]: 79.5%
- cell viability [17]: 81.4%
- cell viability [18]: 87.2%
- cell viability [19]: 15.3%
- cell viability [20]: 75.6%
- cell viability [21]: 75.6%
- cell viability [22]: 45.9%
- cell viability [23]: 74.6%
- cell viability [24]: 89.1%
- cell viability [25]: 66.9%
- cell viability [26]: 75.7%
- cell viability [27]: 73.6%
- cell viability [28]: 81.8%
- cell viability [29]: 106%
- cell viability [30]: 16.6%
- cell viability [31]: 87.5%
- cell viability [32]: 105%
- cell viability [33]: 36.4%

Structure (SMILES): Oc1ccc2ccccc2c1SSc1c(O)ccc2ccccc12
- cell viability [1]: 95%
- cell viability [2]: 102%
- cell viability [3]: 109%
- cell viability [4]: 116%
- cell viability [5]: 106%
- cell viability [6]: 85.8%
- cell viability [7]: 99.5%
- cell viability [8]: 96.2%
- cell viability [9]: 108%
- cell viability [10]: 97.3%
- cell viability [11]: 9.05%
- cell viability [12]: 104%
- cell viability [13]: 109%
- cell viability [14]: 95%
- cell viability [15]: 102%
- cell viability [16]: 111%
- cell viability [17]: 79.1%
- cell viability [18]: 103%
- cell viability [19]: 99.4%
- cell viability [20]: 104%
- cell viability [21]: 78.9%
- cell viability [22]: 30%
- cell viability [23]: 95%
- cell viability [24]: 99.6%
- cell viability [25]: 84.3%
- cell viability [26]: 113%
- cell viability [27]: 92.5%
- cell viability [28]: 66.9%
- cell viability [29]: 93.1%
- cell viability [30]: 104%
- cell viability [31]: 87.6%
- cell viability [32]: 74.7%
- cell viability [33]: 20.1%

Structure (SMILES): CC(C)n1cnc2c(NCCc3ccc(O)cc3)nc(-c3csc4ccccc34)nc21
- cell viability [1]: 105%
- cell viability [2]: 91%
- cell viability [3]: 99.5%
- cell viability [4]: 114%
- cell viability [5]: 114%
- cell viability [6]: 139%
- cell viability [7]: 116%
- cell viability [8]: 122%
- cell viability [9]: 122%
- cell viability [10]: 39.8%
- cell viability [11]: 10.4%
- cell viability [12]: 111%
- cell viability [13]: 103%
- cell viability [14]: 102%
- cell viability [15]: 108%
- cell viability [16]: 101%
- cell viability [17]: 125%
- cell viability [18]: 129%
- cell viability [19]: 99.2%
- cell viability [20]: 77.2%
- cell viability [21]: 8.37%
- cell viability [22]: 8.04%
- cell viability [23]: 106%
- cell viability [24]: 97.7%
- cell viability [25]: 103%
- cell viability [26]: 110%
- cell viability [27]: 114%
- cell viability [28]: 127%
- cell viability [29]: 132%
- cell viability [30]: 122%
- cell viability [31]: 57.7%
- cell viability [32]: 11.4%
- cell viability [33]: 7.89%

Structure (SMILES): CO[C@@H]1[C@@H](O)[C@H](O)[C@@H](n2c3c(Cl)cccc3c3c4c(c5c6cccc(Cl)c6[nH]c5c32)C(=O)NC4=O)O[C@H]1CO
- cell viability [1]: 99.7%
- cell viability [2]: 90.8%
- cell viability [3]: 105%
- cell viability [4]: 112%
- cell viability [5]: 96.9%
- cell viability [6]: 81.2%
- cell viability [7]: 54.5%
- cell viability [8]: 13.8%
- cell viability [9]: 9.51%
- cell viability [10]: 5.16%
- cell viability [11]: 5.04%
- cell viability [12]: 137%
- cell viability [13]: 118%
- cell viability [14]: 113%
- cell viability [15]: 112%
- cell viability [16]: 108%
- cell viability [17]: 70.1%
- cell viability [18]: 28.1%
- cell viability [19]: 11.5%
- cell viability [20]: 6.56%
- cell viability [21]: 4.38%
- cell viability [22]: 4.8%
- cell viability [23]: 99.2%
- cell viability [24]: 113%
- cell viability [25]: 95.1%
- cell viability [26]: 100%
- cell viability [27]: 92.4%
- cell viability [28]: 82.9%
- cell viability [29]: 43.1%
- cell viability [30]: 11%
- cell viability [31]: 7.94%
- cell viability [32]: 4.29%
- cell viability [33]: 3.62%

Structure (SMILES): CC(C)(Sc1ccc(CCN(CCCCC2CCCCC2)C(=O)NC2CCCCC2)cc1)C(=O)O
- cell viability [1]: 98.9%
- cell viability [2]: 105%
- cell viability [3]: 110%
- cell viability [4]: 102%
- cell viability [5]: 106%
- cell viability [6]: 113%
- cell viability [7]: 111%
- cell viability [8]: 96.3%
- cell viability [9]: 94.4%
- cell viability [10]: 93.9%
- cell viability [11]: 98.9%
- cell viability [12]: 96.3%
- cell viability [13]: 108%
- cell viability [14]: 117%
- cell viability [15]: 114%
- cell viability [16]: 102%
- cell viability [17]: 105%
- cell viability [18]: 105%
- cell viability [19]: 98.8%
- cell viability [20]: 107%
- cell viability [21]: 89.6%
- cell viability [22]: 75.9%
- cell viability [23]: 103%
- cell viability [24]: 107%
- cell viability [25]: 102%
- cell viability [26]: 111%
- cell viability [27]: 117%
- cell viability [28]: 101%
- cell viability [29]: 114%
- cell viability [30]: 96.9%
- cell viability [31]: 101%
- cell viability [32]: 113%
- cell viability [33]: 82.1%

Structure (SMILES): Oc1c(Cl)cc(Cl)c2cccnc12
- cell viability [1]: 112%
- cell viability [2]: 77%
- cell viability [3]: 121%
- cell viability [4]: 104%
- cell viability [5]: 109%
- cell viability [6]: 120%
- cell viability [7]: 122%
- cell viability [8]: 108%
- cell viability [9]: 104%
- cell viability [10]: 66.3%
- cell viability [11]: 12.3%
- cell viability [12]: 108%
- cell viability [13]: 102%
- cell viability [14]: 94%
- cell viability [15]: 103%
- cell viability [16]: 102%
- cell viability [17]: 113%
- cell viability [18]: 120%
- cell viability [19]: 91.4%
- cell viability [20]: 112%
- cell viability [21]: 71%
- cell viability [22]: 7.14%
- cell viability [23]: 107%
- cell viability [24]: 93.8%
- cell viability [25]: 85.1%
- cell viability [26]: 97.2%
- cell viability [27]: 97.5%
- cell viability [28]: 96.3%
- cell viability [29]: 101%
- cell viability [30]: 116%
- cell viability [31]: 99.1%
- cell viability [32]: 59.8%
- cell viability [33]: 7.1%
